Patent US20230390322A1, “HIGH CONCENTRATION METHYLCOBALAMIN OR COMBINATION OF METHYL- AND HYDROXY-COBALAMIN FOR THE TREATMENT OF COBALAMIN C DEFICIENCY DISORDERS” (THE U.S.A., as represented by the Secretary, Department of …, priority 2020, published 2023)
Entries after “also recorded” stand apart in the source; their conditions may differ.

How the values were obtained:
Mmachc^de12/de12 mice [1] = test: Postnatal weight, Mmachc^de12/de12; type: in vivo, mouse; conditions: prenatal treatment
Protocol: (§1) Survival and phenotype in Mmachc mice: Mendelian ratios at birth, survival, and relative weight: To determine survival, litters were assessed daily after birth and dead pups were noted, removed, and genotyped when tissue was available. Age at time of death was recorded. Weights were measured monthly and the weight of mutants relative to average weight of control littermates was calculated.

Mmachc^de13/de13 mice [2] = test: Plasma metabolite measurements (GC-MS), Mmachc^de13/de13; type: in vivo, mouse; conditions: for plasma cystathionine: P0-P30; for plasma methylmalonic acid: P0-P30 (two weeks)
Protocol: Metabolite measurements: Blood samples were collected in heparinized capillary tubes and centrifuged at 2000 rpm for 10 min at 4C. Plasma was diluted 1:40 in water for methylmalonic acid and methylcitrate measurements and undiluted plasma was used for homocysteine and cystathionine measurements. Plasma concentrations were determined by gas chromatography-mass spectrometry (GC-MS).

Mmachc^de13/de13 mice [3] = test: Postnatal weight relative to control littermates, Mmachc^de13/de13; type: in vivo, mouse
Protocol: as §1

Mmachc^de13/de13 mice [4] = test: Survival of treated Mmachc^de13/de13 mutant mice; type: in vivo, mouse; conditions: for median survival: Mmachc^de13/de13 mutants, pregnant dams treated weekly (1 mg) throughout gestation and weaning (prenatal treatment); for mutants alive at 100 days: prenatal treatment
Protocol: as §1
(§2) Cobalamin Treatment: OHCbl and MeCbl were obtained from College Pharmacy (Colorado Spring, CO) or prepared at 25 mg/ml concentration and subsequently diluted with 0.9% saline solution to a working solution of 5 mg/ml. OHCbl or MeCbl was delivered by intraperitoneal injections for pups ages P0-P14 and subcutaneous injections for mice post weaning. For in utero treatment studies, pregnant dams were treated with 1 mg/week (100 mg/kg) via subcutaneous injections throughout pregnancy and weaning. For chronic therapy 50 μg/kg dosing was used.
(§3) AAV Vector Design, Production, and Delivery: Two adeno associated viral vectors were designed: AAVrh10-Mmachc, containing the murine Mmachc coding sequence packaged into a rh10 serotype capsid, and AAV9-coMMACHC, containing a codon optimized human MMACHC coding sequence packaged into an AAV9 serotype capsid. AAVs were produced as described previously. AAV viral vectors were delivered via intrahepatic injection at a dose of 1×10^11 GC per pup in the neonatal period (P0-2). ddPCR was conducted using a CMV/CBA probe spanning the promoter/enhancer, reference albumin Dissection of Pregnant Dams: Pregnant dams were either untreated, treated with OHCbl, MeCbl or the combination (1 mg per week) during pregnancy as described and sacrificed at E18.5. Embryos were photographed, tails were collected for genotyping, and the remaining tissue was collected and flash frozen. Embryo weights were measured and the weight of mutants relative to average weight of control littermates was calculated. Crown to rump length of each embryo was also determined using ImageJ software.
(§4) Statistics: Graphpad Prism Software was used for statistical analysis. All data are presented as mean±SD and significance is indicated as follows: p<0.05(*), p<0.01(**), p<0.001 (***), and p<0.0001(****). Kaplan-Meier survival curve significance was determined using the Log-Rank Mantel-Cox test, genotype distribution significance was assessed using the chi-square test, and all other statistics were calculated using the unpaired t-test.

Mmachc^del2 mouse line = test: Genotype distribution at birth (P0-2), Mmachc^del2 litters; type: in vivo; conditions: mice at birth; prenatal treatment
Protocol: (§5) Genotyping and breeding scheme: Tail biopsies were performed routinely at 10-15 days of life or in rare cases in the first day of life and DNA was extracted using the Qiagen DNEASY® Spin Kit or the MYTAQ® Extract-PCR Kit. Mmachc genotype was determined by a fluorescent PCR method described previously^22 or by Droplet Digital PCR (ddPCR) Mutation Detection Assay (Bio-Rad). ddPCR genotyping was performed by mixing 2 ul of 1:10 diluted DNA, 1.1 ul probe-primer mix, and 7.9 ul water. The primer-probe mix contained the wild-type/mutant primer and fluorescent FAM and HEX probes targeting the mutant and wild-type alleles, respectively. Sample droplets were generated by the QX200 Droplet Digital PCR system, PCR amplified in a thermocycler, and DNA quantified by droplet fluorescence. Mmachc homozygous mutant mice and their heterozygote or wild type control littermates were generated from heterozygous parental crosses unless otherwise noted. In order to eliminate the Pdeb(rdl) mutation present in the FVB/N genetic background which causes retinal degeneration, Mmachc carrier mice were crossed to C57BL/6J mice. Subsequent generations of Mmachc carriers were genotyped for the Pdeb(rdl) mutation using a published PCR method (Gimenez and Montouliu Lab Anim 35, 153-6 (2001)), and mice homozygous for the functional Pdeb(rdl) allele were selected for further breeding. Mice were fed regular or high fat chow and weaned at P21-28.
as §1, §2, §4

Mmachc^de12/de12 mice [5] = test: Survival of treated Mmachc^de12/de12 mutant mice; type: in vivo, mouse; conditions: prenatal treatment; for median survival: Mmachc^de12/de12 mutants, OHCbl 1 mg, MeCbl 1 mg or 0.5 mg each weekly
Protocol: as §1, §2, §4

Mmachc^de12/de12 mice [6] = test: Pigmentation / clinical appearance, Mmachc^de12/de12; type: in vivo, mouse; conditions: prenatal treatment
Mmachc^del3 mouse line [7] = test: Genotype distribution at birth (P0-2), Mmachc^del3 litters; type: in vivo; conditions: mice at birth; prenatal treatment
Protocol: as §5, §1, §2, §4

Mmachc^de12/de12 embryos = test: E18.5 embryo weight and pathology, Mmachc^de12/de12; type: in vivo, mouse; conditions: prenatal treatment
Protocol: as §3

Mmachc^de13/de13 mice [8] = test: Pigmentation / clinical appearance, Mmachc^de13/de13; type: in vivo, mouse
Mmachc^de13/de13 mice [9] = test: Retinal histology and electroretinography, Mmachc^de13/de13; type: in vivo, mouse
Source text: The severe neonatal lethality of this model in combination with the fact that the mouse retina develops until ˜P21 made it challenging to study retinal pathology in untreated mice.

Mmachc^del3 mouse line [10] = test: Genotype distribution at E18.5, Mmachc^del3 litters; type: in vivo; conditions: mice at E18.5; prenatal treatment
Protocol: as §3, §4

cblC patients = test: Natural history cohort of cblC patients (NCT00078078); type: in vivo, human
Protocol: Extensive data was collected on a large natural history cohort of 61 patients studied every 2-3 years over 15 yrs to evaluate the impact of different approaches to clinical management/cobalamin therapy on disease outcomes (ClinicalTrial.gov ID: NCT00078078). […] Six patients (ages 2.2-3.8 years), who received higher doses of hydroxocobalamin (5-20 mg/day or 0.3-1.4 mg/kg/d) starting between 6 mo-1 yr, presented with variable macular degeneration and improved average FSIQ and ABC scores in the normal range (FSIQ 91.6±5.3; ABC 88.2±10.7), compared to our historic scores in young children <10 y of age on <0.3 mg/kg/day (FSIQ 70.69±19.11, ABC 79.83±17.42).

Mmachc^de13/de13 embryos = test: E18.5 embryo growth parameters, Mmachc^de13/de13; type: in vivo, mouse
Protocol: as §3

[11] = 7-13 months, both prenatal OHCbl and prenatal OHCbl+weekly groups
[12] = 7-13 months, prenatal+postnatal OHCbl
[13] = six patients ages 2.2-3.8 years, 5-20 mg/day or 0.3-1.4 mg/kg/d starting between 6 mo-1 yr
[14] = young children <10 y of age on <0.3 mg/kg/day

SMILES: C/C1=C2/[N-][C@H]([C@H](CC(N)=O)[C@@]2(C)CCC(=O)NC[C@H](C)OP(=O)([O-])O[C@H]2[C@@H](O)[C@@H](n3cnc4cc(C)c(C)cc43)O[C@@H]2CO)[C@]2(C)N=C(/C(C)=C3N=C(/C=C4N=C1[C@@H](CCC(N)=O)C\4(C)C)[C@@H](CCC(N)=O)[C@]\3(C)CC(N)=O)[C@@H](CCC(N)=O)[C@]2(C)CC(N)=O.[CH3-].[Co+3] [MeCbl, methylcobalamin]
- growth at 1 month (Mmachc^de12/de12 mice [1]): appeared growth impaired but this was not significant at 1 month
- plasma cystathionine (Mmachc^de13/de13 mice [2]; prenatal treatment): reduced cystathionine to control levels; also recorded: decreased to control levels
- homocysteine levels (Mmachc^de13/de13 mice [2]; prenatal treatment): did not improve
- size relative to littermates at 3 months (Mmachc^de13/de13 mice [3]; prenatal treatment): 48%
- median survival (Mmachc^de13/de13 mice [4]): 144 days
- mutants alive at 100 days (Mmachc^de13/de13 mice [4]): 100%
- genotype distribution +/+ (%) (Mmachc^del2 mouse line): 18%
- genotype distribution +/+ n (Mmachc^del2 mouse line): 14
- genotype distribution +/− (%) (Mmachc^del2 mouse line): 53%
- genotype distribution +/− n (Mmachc^del2 mouse line): 41
- genotype distribution −/− (%) (Mmachc^del2 mouse line): 29%
- genotype distribution −/− n (Mmachc^del2 mouse line): 22
- median survival (Mmachc^de12/de12 mice [5]): 78 days
- mutants survived beyond 30 days (Mmachc^de12/de12 mice [5]): 100%
- pigmentation of the ears (Mmachc^de12/de12 mice [6]): improvement in pigmentation of the ears
- genotype distribution +/+ (%) (Mmachc^del3 mouse line [7]): 31%
- genotype distribution +/+ n (Mmachc^del3 mouse line [7]): 38
- genotype distribution +/− (%) (Mmachc^del3 mouse line [7]): 63%
- genotype distribution +/− n (Mmachc^del3 mouse line [7]): 76
- genotype distribution −/− (%) (Mmachc^del3 mouse line [7]): 6%
- genotype distribution −/− n (Mmachc^del3 mouse line [7]): 7
- weight of E18.5 embryos normalized to control values (Mmachc^de12/de12 embryos; weekly subcutaneous injection of dams, untreated 76.4%): 89.4 % of controls
- pathology at E18.5 (Mmachc^de12/de12 embryos; H&E): ameliorated the pathology in the lungs, liver and brown fat
- pigmentation of fur, ears and tails (Mmachc^de13/de13 mice [8]; prenatal treatment): minimal pigmentation differences

SMILES: C/C1=C2/[N-][C@H]([C@H](CC(N)=O)[C@@]2(C)CCC(=O)NC[C@@H](C)OP(=O)([O-])O[C@H]2[C@@H](O)[C@@H](n3cnc4cc(C)c(C)cc43)O[C@@H]2CO)[C@]2(C)N=C(/C(C)=C3N=C(/C=C4N=C1[C@@H](CCC(N)=O)C\4(C)C)[C@@H](CCC(N)=O)[C@]\3(C)CC(N)=O)[C@@H](CCC(N)=O)[C@]2(C)CC(N)=O.[Co+3].[OH-] [OHCbl, hydroxocobalamin]
- retinal histology (Mmachc^de13/de13 mice [9]; 6-9 months of age): within normal limits
- electroretinography (ERG) (Mmachc^de13/de13 mice [9]; prenatal OHCbl/AAV9 at 9 months, OHCbl at 6 months): diminished scotopic B waves
- genotype distribution +/+ (%) (Mmachc^del3 mouse line [10]): (23) %
- genotype distribution +/+ n (Mmachc^del3 mouse line [10]): 14
- genotype distribution +/− (%) (Mmachc^del3 mouse line [10]): (46) %
- genotype distribution +/− n (Mmachc^del3 mouse line [10]): 28
- genotype distribution −/− (%) (Mmachc^del3 mouse line [10]): (31) %
- genotype distribution −/− n (Mmachc^del3 mouse line [10]): 19
- homocysteine (Mmachc^de13/de13 mice [2]; [11]): remained elevated vs controls but was lower
- methylmalonic acid (Mmachc^de13/de13 mice [2]; [11]): remained elevated vs controls and untreated mutants
- methylmalonic acid levels in the blood [MMA] (Mmachc^de13/de13 mice [2]; [12]): > 1500 µM
- total homocysteine levels (tHCYS) (Mmachc^de13/de13 mice [2]; [12]): 31 µM
- plasma methylmalonic acid (Mmachc^de13/de13 mice [2]; prenatal treatment only): no decrease
- plasma methylmalonic acid (Mmachc^de13/de13 mice [2]; weekly (chronic) OHCbl): decreased
- plasma cystathionine (Mmachc^de13/de13 mice [2]; prenatal treatment): elevated compared to untreated mutants; also recorded: increased
- homocysteine levels (Mmachc^de13/de13 mice [2]; prenatal and weekly treatment): did not improve
- homocysteine levels (Mmachc^de13/de13 mice [2]; prenatal treatment): did not improve
- relative weight of mutant mice at two weeks (Mmachc^de13/de13 mice [3]; prenatal OHCbl): improved the weight vs untreated
- relative weight of mutant mice at two weeks (Mmachc^de13/de13 mice [3]; prenatal OHCbl+weekly): improved the weight vs untreated
- median survival (Mmachc^de13/de13 mice [4]): 109 days
- mutants alive at 100 days (Mmachc^de13/de13 mice [4]): 50%
- longest surviving (Mmachc^de13/de13 mice [4]; prenatal+weekly OHCbl): > 1 year
- genotype distribution +/+ (%) (Mmachc^del2 mouse line): 29%
- genotype distribution +/+ n (Mmachc^del2 mouse line): 76
- genotype distribution +/− (%) (Mmachc^del2 mouse line): 66%
- genotype distribution +/− n (Mmachc^del2 mouse line): 171
- genotype distribution −/− (%) (Mmachc^del2 mouse line): 5%
- genotype distribution −/− n (Mmachc^del2 mouse line): 13
- median survival (Mmachc^de12/de12 mice [5]): 25 days
- adverse events (cblC patients; adults and children on 25 mg/day monitored 2-8 years): no significant adverse events
- ABC score (cblC patients; single patient, 5 mg): 79
- eye exam (cblC patients; single patient, 5 mg): normal
- average ABC score (cblC patients; [13]): 88.2±10.7
- average FSIQ score (cblC patients; [13]): 91.6±5.3
- ABC score (historic) (cblC patients; [14]): 79.83±17.42
- FSIQ score (historic) (cblC patients; [14]): 70.69±19.11
- genotype distribution +/+ (%) (Mmachc^del3 mouse line [7]): 30%
- genotype distribution +/+ n (Mmachc^del3 mouse line [7]): 105
- genotype distribution +/− (%) (Mmachc^del3 mouse line [7]): 54%
- genotype distribution +/− n (Mmachc^del3 mouse line [7]): 192
- genotype distribution −/− (%) (Mmachc^del3 mouse line [7]): 16%
- genotype distribution −/− n (Mmachc^del3 mouse line [7]): 57
- embryo weight normalized to control littermates (Mmachc^de13/de13 embryos; de13/de13, prenatal treatment, n=11): 0.8204±0.03641
- anterioposterior abdominal dimension (APD) (Mmachc^de13/de13 embryos; prenatal treatment): did not improved
- crown rump length (IUGR) (Mmachc^de13/de13 embryos; prenatal treatment): did not rescue the IUGR
- pigmentation of ears and tail (Mmachc^de13/de13 mice [8]; long term (prenatal+weekly) treatment): decreased hypopigmentation
